Values of other authors in patent US20100331419A1, “Combination Therapies for the Treatment of Obesity” (priority 2009, published 2010).

Details: literature studies of weight loss medications

Row | SMILES | weight loss of body weight for drug compared with placebo
1 | CCN[C@@H](C)Cc1cccc(C(F)(F)F)c1 [dexfenfluramine] | about 5%
2 | CCCCCCCCCCC[C@@H](C[C@@H]1OC(=O)[C@H]1CCCCCC)OC(=O)[C@H](CC(C)C)NC=O [orlistat] | about 5%
3 | CC(C)CC(N(C)C)C1(c2ccc(Cl)cc2)CCC1 (stereo not drawn) [sibutramine] | about 5%
